From ChEMBL document CHEMBL4190174 (2016)
Calls of active or inactive are those of the source. The rule behind the calls is not given here.

Columns and labels:
U373 MG [1] = assay: Growth inhibition of empty vector transfected human U373 cells after 7 days by MTT assay; format: functional, U-373MG ATCC; conditions: 168 h
SNB-19 [2] = assay: Growth inhibition of MGMT-transfected human SNB19 cells after 7 days by MTT assay; format: functional; conditions: SNB-19, 168 h
SNB-19 [3] = assay: Growth inhibition of empty vector transfected human SNB19 cells after 7 days by MTT assay; format: functional; conditions: SNB-19, 168 h
U373 MG [4] = assay: Growth inhibition of MGMT-transfected human U373 cells after 7 days by MTT assay; format: functional, U-373MG ATCC; conditions: 168 h
SNB-19 [5] = assay: Ratio of GI50 for MGMT-transfected human SNB19 cells to GI50 for empty vector transfected human SNB19 cells; format: functional
U373 MG [6] = assay: Potency index, ratio of temozolomide GI50 to compound GI50 for MGMT-transfected human U373 cells; format: functional, U-373MG ATCC
SNB-19 [7] = assay: Potency index, ratio of temozolomide GI50 to compound GI50 for MGMT-transfected human SNB19 cells; format: functional
U373 MG [8] = assay: Ratio of GI50 for MGMT-transfected human U373 cells to GI50 for empty vector transfected human U373 cells; format: functional, U-373MG ATCC
SNB-19 [9] = assay: Potency index, ratio of temozolomide GI50 to compound GI50 for empty vector transfected human SNB19 cells; format: functional
U373 MG [10] = assay: Potency index, ratio of temozolomide GI50 to compound GI50 for empty vector transfected human U373 cells; format: functional, U-373MG ATCC
HCT-116 [11] = assay: Growth inhibition of human HCT116 cells harboring hMLH1 mutation relative to temozolomide; format: functional
[12] = Growth inhibition of human SNB19VR cells by MTT assay; format: functional
DLD-1 [13] = assay: Growth inhibition of human DLD1 cells harboring hMSH6 mutation relative to temozolomide; format: functional
dsDNA [14] = assay: Induction of double stranded DNA break in MGMT-transfected human U373 cells assessed as increase in gamma-H2AX level at 100 uM after 72 hrs by flow cytometry relative to control; format: cell-based
DNA [15] = assay: Induction of Escherichia coli pBR322 DNA cleavage assessed as covalent modification at N-7 guanine at 10 to 1000 uM after 2 hrs by PAGE based autoradiographic method; format: nucleic-acid assay
DNA [16] = assay: Induction of Escherichia coli pBR322 DNA interstrand cross linking using 5'-end labeled [gamma32P]ATP primer at <=1000 uM after 2 to 40 hrs by PAGE based autoradiographic method; format: nucleic-acid assay
Escherichia coli = assay: Induction of Escherichia coli linearized pBR322 DNA alkylation at clusters of 3/5 guanines using 5'-end labeled [gamma32P]ATP primer after 2 hrs by PAGE based taq polymerase stop assay
dsDNA [17] = assay: Induction of double stranded DNA break in MGMT-transfected human U373 cells assessed as increase in gamma-H2AX level at 100 uM after 72 hrs by flow cytometry; format: cell-based
[18] = Growth inhibition of human U373VR cells by MTT assay; format: functional
HCT-116 [19] = assay: Growth inhibition of human HCT116 cells harboring hMLH1 mutation; format: functional
DLD-1 [20] = assay: Growth inhibition of human DLD1 cells harboring hMSH6 mutation; format: functional
[21] = tested on: Panel NCI-60 (60 carcinoma cell lines); assay: Growth inhibition of human NCI60 cells after 48 hrs by MTT assay; format: functional

Compound | GI50 (U373 MG [1]) | GI50 (SNB-19 [2]) | GI50 (SNB-19 [3]) | GI50 (U373 MG [4]) | also measured
COCn1nnc2c(C(N)=O)ncn2c1=O | 26 µM | 37.9 µM | 30.8 µM | 33.1 µM | –
NC(=O)c1nc[nH]c1N/N=N/CCO | 383 µM | > 500 µM | 441 µM | 336 µM | –
CNC(=O)Cn1nnc2c(C(N)=O)ncn2c1=O | 260 µM | 246 µM | 65.8 µM | 263 µM | –
CSCn1nnc2c(C(N)=O)ncn2c1=O | 59 µM | 151 µM | 107 µM | 56.5 µM | –
C=CCn1nnc2c(C(N)=O)ncn2c1=O | 141 µM | 239 µM | 258 µM | 199 µM | –
NC(=O)CCn1nnc2c(C(N)=O)ncn2c1=O | 138 µM | 398 µM | 321 µM | 355 µM | –
NC(=O)c1ncn2c(=O)n(CC(=O)N3CCOCC3)nnc12 | 243 µM | 102 µM | 62.3 µM | 132 µM | –
NC(=O)c1ncn2c(=O)n(CCO)nnc12 | 288 µM | 417 µM | 204 µM | 322 µM | –
NC(=O)c1ncn2c(=O)n(CCC(=O)O)nnc12 | > 250 µM | > 250 µM | > 250 µM | > 250 µM | –
NC(=O)c1ncn2c(=O)n(C3CC3)nnc12 | 306 µM | > 500 µM | 428 µM | 360 µM | –
COC(=O)Cn1nnc2c(C(N)=O)ncn2c1=O | 32.1 µM | 49 µM | 47.5 µM | 46.4 µM | –
COCC/N=N/Nc1[nH]cnc1C(N)=O | > 500 µM | > 500 µM | > 500 µM | > 500 µM | –
NC(=O)c1nc[nH]c1N/N=N/CC1CC1 | > 500 µM | > 500 µM | > 500 µM | > 500 µM | –
N#CC/N=N/Nc1[nH]cnc1C(N)=O | 106 µM | 271 µM | 111 µM | 242 µM | –
NC(=O)c1ncn2c(=O)n(CCCl)nnc12 [MITOZOLOMIDE] | 22 µM | 68.4 µM | 10 µM | 40.3 µM | RatioGI50 (SNB-19 [5]): >2; RatioGI50 (U373 MG [6]): 10; RatioGI50 (SNB-19 [7]): 10; RatioGI50 (U373 MG [8]): >2; RatioGI50 (SNB-19 [9]): >3; RatioGI50 (U373 MG [10]): >3
NC(=O)Cn1nnc2c(C(N)=O)ncn2c1=O | 65.4 µM | 95.3 µM | 38 µM | 72.3 µM | –
CCOC(=O)C/N=N/Nc1[nH]cnc1C(N)=O | 30.3 µM | 37.4 µM | 33.6 µM | 23.4 µM | –
C#CCn1nnc2c(C(N)=O)ncn2c1=O | 37.6 µM | 37.8 µM | 35.6 µM | 36.1 µM | fold change (FC) (HCT-116 [11]): >10; GI50 [12]: < 50 µM; fold change (FC) (DLD-1 [13]): >10; fold change (FC) (dsDNA [14]): > 2; Activity (DNA [15]): Active; Activity (DNA [16]): inactive; Activity (Escherichia coli): Dose-dependent effect; Activity (dsDNA [17]): Active; GI50 [18]: < 50 µM
CC(C)(C)C(=O)OCn1nnc2c(C(N)=O)ncn2c1=O | 13.2 µM | 28 µM | 45 µM | 28.9 µM | –
COC(=O)C/N=N/Nc1[nH]cnc1C(N)=O | 32.6 µM | 49.7 µM | 47.7 µM | 46.4 µM | –

Compound | GI50 (U373 MG [1]) | GI50 (SNB-19 [2]) | GI50 (SNB-19 [3]) | GI50 (U373 MG [4]) | also measured
CN(C)C(=O)Cn1nnc2c(C(N)=O)ncn2c1=O | 85.1 µM | 73.4 µM | 67.7 µM | 92.5 µM | –
CCOC(=O)Cn1nnc2c(C(N)=O)ncn2c1=O | 63.2 µM | 61.1 µM | 52.4 µM | 55.6 µM | –
C[Si](C)(C)C#CCn1nnc2c(C(N)=O)ncn2c1=O | 30.3 µM | 39.5 µM | 39.1 µM | 30.7 µM | –
NC(=O)c1ncn2c(=O)n(CO)nnc12 | – | 42.1 µM | 46.2 µM | – | –
C#CC/N=N/Nc1[nH]cnc1C(N)=O | 32 µM | 33.9 µM | 39.1 µM | 35.6 µM | fold change (FC) (dsDNA [14]): > 2; Activity (DNA [15]): Active; Activity (Escherichia coli): Dose-dependent effect; Activity (dsDNA [17]): Active
NC(=O)c1ncn2c(=O)n(CCl)nnc12 | 29.3 µM | 31 µM | 34.6 µM | 24.4 µM | –
NC(=O)c1ncn2c(=O)n(COCc3ccccc3)nnc12 | 16.5 µM | 48.5 µM | 52.2 µM | 28.8 µM | –
NC(=O)c1nc[nH]c1N/N=N/CC(F)(F)F | 209 µM | 131 µM | 68.8 µM | 423 µM | –
C[S+]([O-])Cn1nnc2c(C(N)=O)ncn2c1=O (stereo unspecified) | 13.7 µM | 20.1 µM | 26.8 µM | 14.4 µM | –
CCOC(=O)C=[N+]=[N-] | > 800 µM | > 800 µM | > 800 µM | > 800 µM | –
CS(=O)(=O)Cn1nnc2c(C(N)=O)ncn2c1=O | 20.2 µM | 18.3 µM | 13.8 µM | 7.5 µM | –
NC(=O)c1ncn2c(=O)n(CC(=O)O)nnc12 | 69.5 µM | 296 µM | 265 µM | 140 µM | –
CCOC(=O)CCn1nnc2c(C(N)=O)ncn2c1=O | 129 µM | 255 µM | 367 µM | 143 µM | –
Cn1nnc2c(C(N)=O)ncn2c1=O [TEMOZOLOMIDE] | 72.9 µM | 526 µM | 45.6 µM | 395 µM | RatioGI50 (SNB-19 [5]): 11; GI50 [12]: 280 µM; GI50 (HCT-116 [19]): > 500 µM; RatioGI50 (U373 MG [8]): 5; GI50 (DLD-1 [20]): > 500 µM; Activity (DNA [16]): inactive; GI50 [21]: > 100 µM; GI50 [18]: 289 µM
NC(=O)c1nc[nH]c1N/N=N/CC(F)F | 205 µM | 70.3 µM | 68.8 µM | 248 µM | –
NC(=O)c1ncn2c(=O)n(CC3CC3)nnc12 | 386 µM | 223 µM | 286 µM | 149 µM | –
NC(=O)c1nc[nH]c1N/N=N/C1CC1 | > 500 µM | > 500 µM | > 500 µM | > 500 µM | –
CC#CCn1nnc2c(C(N)=O)ncn2c1=O | 36.5 µM | 37.6 µM | 39.6 µM | 33 µM | –
CC(=O)OCn1nnc2c(C(N)=O)ncn2c1=O | 11.8 µM | 40.4 µM | 48.3 µM | 39.4 µM | –
